# Values quoted from earlier work, collected in patent US20040062754A1, “Photopheresis treatment of chronic HCV infections” (priority 1996, published 2004).
# Assays:
# [1] = tested on: hepatitis C virus
# [2] = tested on: progressive systemic sclerosis; conditions: 56 patients enrolled
compound,measurement,setting,value
interferon-alpha,relapse rate after interferon therapy,[1]; in vivo,80-85%
same,patients with normal LFTs and nondetectable HCV RNA by RT-PCR seven years later,"[1]; ten patients, subcutaneous injections for up to a year",Six
Nc1nc2c(ncn2COCCO)c(=O)[nH]1 [acyclovir],benefit in chronic hepatitis C,[1]; in vivo,little benefit
"interferon alpha-2b, recombinant",sustained response off treatment,"[1]; six month course, 3 million units three times a week",18%
CC(C)(S)[C@@H](N)C(=O)O [D-penicillamine],response rate,[2],32%
